Assay results reported in PubChem BioAssay AID2060889 (Molecular Pharmacology Branch, DTP, NCI, 2025).
pIC50: −log10 of the molar value.

System: LG0567-F671-PDC complex spheroids viability
Assay: Anticancer human tumor LG0567-F671-PDC patient-derived lung adenocarcinoma cell line growth inhibition [RAS]
Settings: for viability, T/C: stronger effect = lower value
Outline: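 Agents were tested in combination matrices in half-log decrements from a top concentration at or near clinical Cmax (10 microM if undetermined). Targets were multi-cell spheroids of tumour lines plus HUVEC and MSC stromal cells.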
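Note: spheroids exposed to compound for seven days before readout.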
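Throughout, for pIC50: luminescence signal used as a proxy for viable cells.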

CCc1c2c(nc3ccc(O)cc13)-c1cc3c(c(=O)n1C2)COC(=O)[C@]3(O)CC + CCn1c(-c2cc(N3CCN(C)CC3)cnc2C(C)OC)c2c3cc(ccc31)-c1csc(n1)CC(NC(=O)C1CC1C)C(=O)N1CCCC(N1)C(=O)OCC(C)(C)C2
pIC50 (curve of first compound, second compound 0.000949 µM): > 9.02
pIC50 (curve of first compound, second compound 0.003 µM): > 9.02
pIC50 (curve of first compound, second compound 0.00949 µM): > 9.02
pIC50 (curve of first compound, second compound 0.03 µM): > 9.02
pIC50 (curve of first compound, second compound 0.0949 µM): > 9.02
pIC50 (curve of first compound, second compound 0.3 µM): > 9.02
viability, T/C (second compound 0.000949 µM, first compound 0.000949 µM): 25.9%
viability, T/C (second compound 0.000949 µM, first compound 0.003 µM): 19.2%
viability, T/C (second compound 0.000949 µM, first compound 0.00949 µM): 16.8%
viability, T/C (second compound 0.000949 µM, first compound 0.03 µM): 9.71%
viability, T/C (second compound 0.000949 µM, first compound 0.0949 µM): 6.4%
viability, T/C (second compound 0.000949 µM, first compound 0.3 µM): 3.66%
viability, T/C (second compound 0.003 µM, first compound 0.000949 µM): 13.2%
viability, T/C (second compound 0.003 µM, first compound 0.003 µM): 10.5%
viability, T/C (second compound 0.003 µM, first compound 0.00949 µM): 8.66%
viability, T/C (second compound 0.003 µM, first compound 0.03 µM): 6.1%
viability, T/C (second compound 0.003 µM, first compound 0.0949 µM): 4.22%
viability, T/C (second compound 0.003 µM, first compound 0.3 µM): 2.19%
viability, T/C (second compound 0.00949 µM, first compound 0.000949 µM): 6.6%
viability, T/C (second compound 0.00949 µM, first compound 0.003 µM): 5.95%
viability, T/C (second compound 0.00949 µM, first compound 0.00949 µM): 4.92%
viability, T/C (second compound 0.00949 µM, first compound 0.03 µM): 3.8%
viability, T/C (second compound 0.00949 µM, first compound 0.0949 µM): 2.17%
viability, T/C (second compound 0.00949 µM, first compound 0.3 µM): 1.39%
viability, T/C (second compound 0.03 µM, first compound 0.000949 µM): 4.12%
viability, T/C (second compound 0.03 µM, first compound 0.003 µM): 3.96%
viability, T/C (second compound 0.03 µM, first compound 0.00949 µM): 3.68%
viability, T/C (second compound 0.03 µM, first compound 0.03 µM): 2.7%
viability, T/C (second compound 0.03 µM, first compound 0.0949 µM): 1.39%
viability, T/C (second compound 0.03 µM, first compound 0.3 µM): 0.64%
viability, T/C (second compound 0.0949 µM, first compound 0.000949 µM): 3.25%
viability, T/C (second compound 0.0949 µM, first compound 0.003 µM): 3.49%
viability, T/C (second compound 0.0949 µM, first compound 0.00949 µM): 2.57%
viability, T/C (second compound 0.0949 µM, first compound 0.03 µM): 1.66%
viability, T/C (second compound 0.0949 µM, first compound 0.0949 µM): 1.51%
viability, T/C (second compound 0.0949 µM, first compound 0.3 µM): 0.39%
viability, T/C (second compound 0.3 µM, first compound 0.000949 µM): 2.45%
viability, T/C (second compound 0.3 µM, first compound 0.003 µM): 2.81%
viability, T/C (second compound 0.3 µM, first compound 0.00949 µM): 2.34%
viability, T/C (second compound 0.3 µM, first compound 0.03 µM): 1.76%
viability, T/C (second compound 0.3 µM, first compound 0.0949 µM): 0.8%
viability, T/C (second compound 0.3 µM, first compound 0.3 µM): 0.31%

C=CC(=O)N1CCN(c2nc(OCC3CCCN3C)nc3c(F)c(-c4nc(N)cc(C)c4C(F)(F)F)c(Cl)cc23)C(C)C1 (stereo unspecified)
viability, T/C (compound 0.00316 µM): 16.6% [middle of 12 runs]
viability, T/C (compound 0.01 µM): 14.1% [middle of 12 runs]
viability, T/C (compound 0.0316 µM): 13.4% [middle of 12 runs]
viability, T/C (compound 0.1 µM): 13.5% [middle of 12 runs]
viability, T/C (compound 0.316 µM): 13.8% [middle of 12 runs]
viability, T/C (compound 1 µM): 15.5% [middle of 12 runs]
pIC50 (compound alone, run of 09/09/2024): > 8.50
pIC50 (curve of compound): > 8.50

CC(=O)OC12COC1CC(O)C1(C)C(=O)C(O)C3=C(C)C(OC(=O)C(O)C(NC(=O)OC(C)(C)C)c4ccccc4)CC(O)(C(OC(=O)c4ccccc4)C21)C3(C)C (stereo unspecified)
viability, T/C (compound 0.0316 µM): 51.5% [middle of 4 runs]
viability, T/C (compound 0.1 µM): 44.6% [middle of 4 runs]
viability, T/C (compound 0.316 µM): 58.4% [middle of 4 runs]
viability, T/C (compound 1 µM): 62.5% [middle of 4 runs]
viability, T/C (compound 3.16 µM): 70.3% [middle of 4 runs]
viability, T/C (compound 10 µM): 63.5% [middle of 4 runs]
pIC50 (curve of compound): > 7.50

O=C(c1ccc(F)c(F)c1Nc1ccc(I)cc1F)N1CC(O)([C@@H]2CCCCN2)C1
viability, T/C (compound 0.00316 µM): 85.1% [middle of 4 runs]
viability, T/C (compound 0.01 µM): 58.9% [middle of 4 runs]
viability, T/C (compound 0.0316 µM): 39.8% [middle of 4 runs]
viability, T/C (compound 0.1 µM): 24% [middle of 4 runs]
viability, T/C (compound 0.316 µM): 11.1% [middle of 4 runs]
viability, T/C (compound 1 µM): 3.21% [middle of 4 runs]
IC50 (curve of compound): 17.3 nM [middle of 4 runs]

Nc1ccn(C2OC(CO)C(O)C2(F)F)c(=O)n1 (stereo unspecified) + C#Cc1c(F)ccc2cc(O)cc(-c3ncc4c(N5CC6CCC(C5)N6)nc(OCC56CCCN5CC(F)C6)nc4c3F)c12
pIC50 (curve of first compound, second compound 0.0316 µM): < 6.00
pIC50 (curve of first compound, second compound 0.1 µM): < 6.00
pIC50 (curve of first compound, second compound 0.316 µM): > 8.50
pIC50 (curve of first compound, second compound 1 µM): > 8.50
pIC50 (curve of first compound, second compound 3.16 µM): > 8.50
pIC50 (curve of first compound, second compound 10 µM): > 8.50
viability, T/C (second compound 0.0316 µM, first compound 0.00316 µM): 76.6%
viability, T/C (second compound 0.0316 µM, first compound 0.01 µM): 74.5%
viability, T/C (second compound 0.0316 µM, first compound 0.0316 µM): 60.8%
viability, T/C (second compound 0.0316 µM, first compound 0.1 µM): 59.8%
viability, T/C (second compound 0.0316 µM, first compound 0.316 µM): 63.2%
viability, T/C (second compound 0.0316 µM, first compound 1 µM): 59.5%
viability, T/C (second compound 0.1 µM, first compound 0.00316 µM): 70.4%
viability, T/C (second compound 0.1 µM, first compound 0.01 µM): 71.7%
viability, T/C (second compound 0.1 µM, first compound 0.0316 µM): 52.1%
viability, T/C (second compound 0.1 µM, first compound 0.1 µM): 61.5%
viability, T/C (second compound 0.1 µM, first compound 0.316 µM): 59.8%
viability, T/C (second compound 0.1 µM, first compound 1 µM): 59.2%
viability, T/C (second compound 0.316 µM, first compound 0.00316 µM): 46.8%
viability, T/C (second compound 0.316 µM, first compound 0.01 µM): 46.7%
viability, T/C (second compound 0.316 µM, first compound 0.0316 µM): 47.6%
viability, T/C (second compound 0.316 µM, first compound 0.1 µM): 46.5%
viability, T/C (second compound 0.316 µM, first compound 0.316 µM): 49.4%
viability, T/C (second compound 0.316 µM, first compound 1 µM): 44.8%
viability, T/C (second compound 1 µM, first compound 0.00316 µM): 26.7%
viability, T/C (second compound 1 µM, first compound 0.01 µM): 27.3%
viability, T/C (second compound 1 µM, first compound 0.0316 µM): 25.5%
viability, T/C (second compound 1 µM, first compound 0.1 µM): 26.9%
viability, T/C (second compound 1 µM, first compound 0.316 µM): 27.9%
viability, T/C (second compound 1 µM, first compound 1 µM): 27.5%
viability, T/C (second compound 3.16 µM, first compound 0.00316 µM): 16.1%
viability, T/C (second compound 3.16 µM, first compound 0.01 µM): 16.4%
viability, T/C (second compound 3.16 µM, first compound 0.0316 µM): 16.8%
viability, T/C (second compound 3.16 µM, first compound 0.1 µM): 16%
viability, T/C (second compound 3.16 µM, first compound 0.316 µM): 16.4%
viability, T/C (second compound 3.16 µM, first compound 1 µM): 14.8%
viability, T/C (second compound 10 µM, first compound 0.00316 µM): 8.86%
viability, T/C (second compound 10 µM, first compound 0.01 µM): 9.45%
viability, T/C (second compound 10 µM, first compound 0.0316 µM): 9%
viability, T/C (second compound 10 µM, first compound 0.1 µM): 8.04%
viability, T/C (second compound 10 µM, first compound 0.316 µM): 8.48%
viability, T/C (second compound 10 µM, first compound 1 µM): 9.14%
